The source made the active and inactive calls. How the calls were made is not given here.
molecular target: Receptor-interacting serine/threonine-protein kinase 2 (Homo sapiens) (UniProt O43353); test: RIPK2-NOD2 association inhibitors, IC50 – cell-based, fluorescence, late-stage follow-up (AID 651962); conditions: cell-based NOD2-RIPK2 interaction, fluorescence read-out
Sequence (O43353 whole entry, looked up): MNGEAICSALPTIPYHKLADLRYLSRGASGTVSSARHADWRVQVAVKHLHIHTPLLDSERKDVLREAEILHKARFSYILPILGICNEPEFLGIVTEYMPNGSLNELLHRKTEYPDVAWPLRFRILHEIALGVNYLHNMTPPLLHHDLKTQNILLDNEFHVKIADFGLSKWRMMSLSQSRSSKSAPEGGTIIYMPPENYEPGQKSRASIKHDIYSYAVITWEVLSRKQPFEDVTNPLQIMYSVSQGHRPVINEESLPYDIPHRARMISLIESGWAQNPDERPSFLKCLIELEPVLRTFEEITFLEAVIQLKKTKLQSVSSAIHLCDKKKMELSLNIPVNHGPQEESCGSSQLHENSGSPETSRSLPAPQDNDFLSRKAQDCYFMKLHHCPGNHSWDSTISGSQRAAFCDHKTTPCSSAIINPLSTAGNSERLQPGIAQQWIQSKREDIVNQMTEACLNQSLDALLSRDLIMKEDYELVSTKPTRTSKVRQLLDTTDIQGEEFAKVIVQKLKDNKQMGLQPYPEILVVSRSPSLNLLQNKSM

SMILES	IC50
Cc1nc([N+](=O)[O-])c(Br)n1Cc1ccc(Cl)c(Cl)c1	inactive
O=S(=O)(c1ccc(F)cc1)N1CCCCCC1	> 49.8 µM (inactive)
O=[N+]([O-])c1cc(S(=O)(=O)N2CCCCCC2)ccc1F	8.04 µM
O=[N+]([O-])c1cccc(S(=O)(=O)N2CCCCCC2)c1	> 49.8 µM (inactive)
Cc1ccc(S(=O)(=O)N2CCCCCC2)cc1[N+](=O)[O-]	> 49.8 µM (inactive)
O=S(=O)(c1ccccc1)N1CCCCCC1	> 49.8 µM (inactive)
Cc1cc(S(=O)(=O)N2CCCCCC2)ccc1F	> 49.8 µM (inactive)

Next, values leading:

IC50	SMILES
> 49.8 µM (inactive)	Cc1ncc([N+](=O)[O-])n1Cc1ccc(Cl)c(Cl)c1
2.97 µM	Cc1ccc(C(C[N+](=O)[O-])n2nc(C)cc2C)cc1 (stereo unspecified)
3.81 µM	COc1ccc(C(C[N+](=O)[O-])n2nc(C)cc2C)cc1 (stereo unspecified)
inactive	Cc1nc([N+](=O)[O-])c(Br)n1Cc1ccccc1
